# Measurements published in the NIST ThermoML archive (doi:10.1016/j.jct.2008.02.002).
# Values joined by “and” are separate entries in the source; they are usually repeats but may differ in a detail not shown here. Equal entries are not always repeated. ± gives the expanded uncertainty stated by the source.
# Conditions: Liquid, Transpiration method
compound,measurement,setting,value
"CCCCCC1CCC(=O)O1 (stereo unspecified) [2(3H)-furanone, dihydro-5-pentyl-]",vapor or sublimation pressure,296.2 K,0.00085 ± 5e-05 kPa
same,vapor or sublimation pressure,300 K,0.00123 ± 7e-05 kPa
same,vapor or sublimation pressure,306 K,0.00211 ± 0.00011 kPa
same,vapor or sublimation pressure,313.1 K,0.00391 ± 0.0002 kPa
same,vapor or sublimation pressure,318.1 K,0.00574 ± 0.0003 kPa
same,vapor or sublimation pressure,323.2 K,0.0088 ± 0.00046 kPa
same,vapor or sublimation pressure,328.2 K,0.01277 ± 0.00067 kPa
same,vapor or sublimation pressure,333.1 K,0.01835 ± 0.00095 kPa
same,vapor or sublimation pressure,338 K,0.02514 ± 0.0013 kPa
same,vapor or sublimation pressure,342.8 K,0.03648 ± 0.0019 kPa
same,vapor or sublimation pressure,348.4 K,0.05463 ± 0.0028 kPa
same,vapor or sublimation pressure,353.2 K,0.07252 ± 0.0038 kPa
same,vapor or sublimation pressure,358.1 K,0.1037 ± 0.0053 kPa
same,vapor or sublimation pressure,363.4 K,0.1375 ± 0.007 kPa
CC1CCC(=O)O1 (stereo unspecified) [γ-valerolactone],vapor or sublimation pressure,275.8 K,0.00748 ± 0.00041 kPa
same,vapor or sublimation pressure,282 K,0.0128 ± 0.00068 kPa
same,vapor or sublimation pressure,288 K,0.02076 ± 0.0011 kPa
same,vapor or sublimation pressure,292.8 K,0.02954 ± 0.0017 kPa
same,vapor or sublimation pressure,293.4 K,0.03202 ± 0.0018 kPa
same,vapor or sublimation pressure,298.6 K,0.04438 ± 0.0023 kPa
same,vapor or sublimation pressure,300.7 K,0.05548 ± 0.0029 kPa
same,vapor or sublimation pressure,302.7 K,0.06032 ± 0.0032 kPa
same,vapor or sublimation pressure,306.6 K,0.08358 ± 0.0043 kPa
same,vapor or sublimation pressure,309 K,0.09563 ± 0.005 kPa
same,vapor or sublimation pressure,312.9 K,0.1265 ± 0.0065 kPa
same,vapor or sublimation pressure,317.3 K,0.1599 ± 0.0082 kPa
same,vapor or sublimation pressure,322.3 K,0.2195 ± 0.011 kPa
same,vapor or sublimation pressure,326.9 K,0.2912 ± 0.015 kPa
same,vapor or sublimation pressure,332.4 K,0.3929 ± 0.02 kPa
same,vapor or sublimation pressure,333.9 K,0.4475 ± 0.023 kPa
same,vapor or sublimation pressure,337.3 K,0.5167 ± 0.026 kPa
same,vapor or sublimation pressure,338.8 K,0.58 ± 0.03 kPa
same,vapor or sublimation pressure,342.6 K,0.7011 ± 0.036 kPa
same,vapor or sublimation pressure,343.8 K,0.759 ± 0.039 kPa
same,vapor or sublimation pressure,347.5 K,0.9099 ± 0.046 kPa
same,vapor or sublimation pressure,349.7 K,1.033 ± 0.053 kPa
"CCCC1CCC(=O)O1 (stereo unspecified) [2(3H)-furanone, dihydro-5-propyl-]",vapor or sublimation pressure,298.1 K,0.00729 ± 0.00039 kPa
same,vapor or sublimation pressure,302.8 K,0.01081 ± 0.00057 kPa
same,vapor or sublimation pressure,308 K,0.01613 ± 0.00085 kPa
same,vapor or sublimation pressure,313.1 K,0.02435 ± 0.0013 kPa
same,vapor or sublimation pressure,318 K,0.03459 ± 0.0018 kPa
same,vapor or sublimation pressure,323.1 K,0.05178 ± 0.0027 kPa
same,vapor or sublimation pressure,328.1 K,0.07127 ± 0.0037 kPa
same,vapor or sublimation pressure,333 K,0.09289 ± 0.0048 kPa
same,vapor or sublimation pressure,338.2 K,0.1344 ± 0.007 kPa
same,vapor or sublimation pressure,343.2 K,0.1842 ± 0.0095 kPa
same,vapor or sublimation pressure,348.2 K,0.2432 ± 0.012 kPa
same,vapor or sublimation pressure,353.2 K,0.3239 ± 0.017 kPa
same,vapor or sublimation pressure,358.4 K,0.4408 ± 0.023 kPa
same,vapor or sublimation pressure,363.2 K,0.572 ± 0.029 kPa
CCCCCCC1CCC(=O)O1 (stereo unspecified) [γ-decalactone],vapor or sublimation pressure,298.4 K,0.00035 ± 2e-05 kPa
same,vapor or sublimation pressure,303.3 K,0.00056 ± 3e-05 kPa
same,vapor or sublimation pressure,308.2 K,0.00088 ± 5e-05 kPa
same,vapor or sublimation pressure,313.1 K,0.00146 ± 7e-05 kPa
same,vapor or sublimation pressure,313.4 K,0.00144 ± 7e-05 kPa
same,vapor or sublimation pressure,318.2 K,0.00214 ± 0.00011 kPa and 0.00233 ± 0.00012 kPa
same,vapor or sublimation pressure,322.9 K,0.00339 ± 0.00017 kPa
same,vapor or sublimation pressure,323.2 K,0.00345 ± 0.00018 kPa
same,vapor or sublimation pressure,328.1 K,0.00532 ± 0.00028 kPa
same,vapor or sublimation pressure,328.2 K,0.00523 ± 0.00028 kPa
same,vapor or sublimation pressure,333 K,0.00765 ± 0.0004 kPa
same,vapor or sublimation pressure,333.2 K,0.00791 ± 0.00041 kPa
same,vapor or sublimation pressure,338.1 K,0.0114 ± 0.00059 kPa
same,vapor or sublimation pressure,338.7 K,0.01181 ± 0.00061 kPa
same,vapor or sublimation pressure,343.2 K,0.01646 ± 0.00087 kPa
same,vapor or sublimation pressure,343.9 K,0.01747 ± 0.00092 kPa
same,vapor or sublimation pressure,348.2 K,0.02361 ± 0.0012 kPa
same,vapor or sublimation pressure,349.4 K,0.02507 ± 0.0013 kPa
same,vapor or sublimation pressure,353.3 K,0.03379 ± 0.0017 kPa
same,vapor or sublimation pressure,354.8 K,0.03595 ± 0.0019 kPa
same,vapor or sublimation pressure,360.3 K,0.05404 ± 0.0028 kPa
same,vapor or sublimation pressure,365 K,0.07279 ± 0.0037 kPa
"CCC1CCC(=O)O1 (stereo unspecified) [2(3H)-furanone, 5-ethyldihydro-]",vapor or sublimation pressure,283.3 K,0.00612 ± 0.00032 kPa
same,vapor or sublimation pressure,284.1 K,0.00643 ± 0.00034 kPa
same,vapor or sublimation pressure,285.3 K,0.00733 ± 0.00041 kPa
same,vapor or sublimation pressure,288.2 K,0.00998 ± 0.00053 kPa
same,vapor or sublimation pressure,290.2 K,0.01151 ± 0.00061 kPa
same,vapor or sublimation pressure,293.2 K,0.01468 ± 0.00076 kPa
same,vapor or sublimation pressure,295.3 K,0.0168 ± 0.00088 kPa
same,vapor or sublimation pressure,298.2 K,0.02155 ± 0.0011 kPa
same,vapor or sublimation pressure,300.2 K,0.0271 ± 0.0014 kPa
same,vapor or sublimation pressure,303.2 K,0.0324 ± 0.0017 kPa
same,vapor or sublimation pressure,305.2 K,0.0372 ± 0.0019 kPa
same,vapor or sublimation pressure,308.1 K,0.04647 ± 0.0024 kPa
same,vapor or sublimation pressure,310.1 K,0.05153 ± 0.0027 kPa
same,vapor or sublimation pressure,313.2 K,0.06502 ± 0.0033 kPa
same,vapor or sublimation pressure,315.1 K,0.06992 ± 0.0036 kPa
same,vapor or sublimation pressure,318.2 K,0.08725 ± 0.0046 kPa
same,vapor or sublimation pressure,323.2 K,0.1267 ± 0.0066 kPa
same,vapor or sublimation pressure,328.2 K,0.1719 ± 0.0088 kPa
same,vapor or sublimation pressure,333.2 K,0.2306 ± 0.012 kPa
same,vapor or sublimation pressure,338.2 K,0.3093 ± 0.016 kPa
same,vapor or sublimation pressure,343.1 K,0.4065 ± 0.021 kPa
same,vapor or sublimation pressure,348.2 K,0.5374 ± 0.027 kPa
same,vapor or sublimation pressure,350.9 K,0.6238 ± 0.032 kPa
same,vapor or sublimation pressure,353.3 K,0.6982 ± 0.035 kPa
